One data set deals with Coxsackie-virus B1. Description: Cytopathic effect (CPE) inhibition assay. As to conditions: Enterovirus B, HeLa37, 48 h, HeLa, 37° C., 2 days. In kind it is cell-based, Coxsackievirus B1. (In general: Damage to the host cells serves as the signal in cytopathic effect assays.)
A short description of a further data set: in vitro. As to conditions: human.
Where [1] appears, read: Table 3, read-out: EC50 Coxsackie-virus B1.
The mark [2] stands for this setting: Table 4, read-out: Coxsackie-virus B1 EC50.

Our source for the EC50, melting point and CC50 values is patent publication US9833423B2 (KOREA RESEARCH INSTITUTE OF CHEMICAL TECHNOLOGY, priority 2011, dated 2017).

Structures are written as SMILES. Converted amounts (≈) assume the structure as drawn. Where two headings read alike, the source gives them in different places.

What is called EC50 is the concentration that produces a half-maximal response. For orientation: melting point means the temperature of the solid-liquid transition.

For the compound `CCCC(=O)Oc1cc(C(C)C)ccc1C1(OC(=O)CCC)C(=O)c2ccccc2C1=O` [Example 22, 2-(2-(Butyryloxy)-1,3-dioxo-2,3-dihydro-1H-inden-2-yl)-5-isopropylphenyl butyrate], the melting point fell in the range of 98 to 102 °C. Besides, the EC50 with Coxsackie-virus B1 (setting [1]) is less than 0.01 µg/mL. This compound had a CC50 in “in vitro” (CC50) of 33.8 µg/mL (≈ 77.4 µM).
Take `C=CC(=O)Oc1cc(C(C)C)ccc1C1(OC(=O)C=C)C(=O)c2ccccc2C1=O` [Example 32, 2-(2-(Acryloyloxy)-1,3-dioxo-2,3-dihydro-1H-inden-2-yl)-5-isopropylphenyl acrylate]: the EC50 with Coxsackie-virus B1 (setting [1]) was less than 0.01 µg/mL. This compound also registered a CC50 in the data set “in vitro” (CC50) of 28.7 µg/mL (≈ 70.9 µM).
Compound `CC(=O)Oc1cc(C(C)(C)C)ccc1C1(OC(C)=O)C(=O)c2ccccc2C1=O` [Example 15, 2-(2-Acetoxy-1,3-dioxo-2,3-dihydro-1H-inden-2-yl)-5-tert-butylphenyl acetate] came in with a melting point of 119 to 120 °C. In addition, in the data set on Coxsackie-virus B1 (setting [1]), the EC50 was determined as 0.015 µg/mL. This compound yielded a CC50 in “in vitro” (CC50) of 8.26 µg/mL.
`CC(C)c1ccc(C2(O)C(=O)c3ccccc3C2=O)c(OC(=O)/C=C/c2ccccc2)c1` [Example 30, 2-(2-Hydroxy-1,3-dioxo-2,3-dihydro-1H-inden-2-yl)-5-isopropylphenyl cinnamate]: the melting point was in the range of 95 to 97 °C. Also, in the data set on Coxsackie-virus B1 (setting [1]), the concentration giving a half-maximal response (EC50) is less than 0.01 µg/mL. Besides, the CC50 in “in vitro” (CC50) was greater than 100 µg/mL.
Regarding `CCCCCCCC(=O)NC1(c2ccc(C(C)C)cc2OC(=O)CCCCCCC)C(=O)c2cccc(N)c2C1=O` (stereo not shown) [Example 91, 2-(4-Amino-2-octanamido-1,3-dioxo-2,3-dihydro-1H-inden-2-yl)-5-isopropylphenyl octanoate], the 50% effective concentration (EC50) in the data set on Coxsackie-virus B1 (setting [2]) was determined as 0.015 µg/mL (≈ 0.0267 µM). This compound also showed a CC50 in the data set “in vitro” (Picorna-virus CC50) of 40 µg/mL (≈ 71.1 µM).
`COc1cc(C(C)C)ccc1C1(N)C(=O)c2cccc(NC(C)=O)c2C1=O` (stereo not shown) [Example 66, N-(2-Amino-2-(4-isopropyl-2-methoxyphenyl)-1,3-dioxo-2,3-dihydro-1H-inden-4-yl)acetamide]: the melting point is 183 to 185 °C. In the data set “in vitro” (CC50), the CC50 was 26.7 µg/mL (≈ 72.8 µM).
Compound `CC(=O)c1ccc(C2(O)C(=O)c3ccccc3C2=O)c(O)c1` [Example 20, 2-(4-Acetyl-2-hydroxy-phenyl)-2-hydroxy-indan-1,3-dione] gave a melting point of 177 to 180 °C. In the data set “in vitro” (CC50), the CC50 was greater than 100 µg/mL.
`CCC(C)(C)c1ccc(OC(C)=O)c(C2(OC(C)=O)C(=O)c3ccccc3C2=O)c1` [Example 17, 2-(2-Acetoxy-1,3-dioxo-2,3-dihydro-1H-inden-2-yl)-4-tert-pentylphenyl acetate] returned a melting point of 146 to 151 °C. In the data set “in vitro” (CC50), the CC50 came out at 9.3 µg/mL.
The like results for `COc1ccc2c(c1)C(=O)C(OC(C)=O)(c1ccc(C(C)C)cc1OC(C)=O)C2=O` (stereo not shown) [Example 27, 2-(2-Acetoxy-4-isopropylphenyl)-5-methoxy-1,3-dioxo-2,3-dihydro-1H-inden-2-yl acetate] were, in that order, 146 to 148 °C and 9.5 µg/mL.
With `CC(=O)Oc1c(Cl)cc(Cl)cc1C1(OC(C)=O)C(=O)c2ccccc2C1=O` [Example 5, 2-(2-Acetoxy-1,3-dioxo-2,3-dihydro-1H-inden-2-yl)-4,6-dichlorophenyl acetate], the melting point is 178 to 180 °C. The compound further yielded a CC50 in “in vitro” (CC50) of 26 µg/mL.
The compound `COc1cc(C(C)C)ccc1C1(O)C(=O)c2c(NC(C)=O)ccc([N+](=O)[O-])c2C1=O` (stereo not shown) [Example 42, N-(2-Hydroxy-2-(4-isopropyl-2-methoxyphenyl)-7-nitro-1,3-dioxo-2,3-dihydro-1H-inden-4-yl)acetamide] yielded a melting point of 110 to 115 °C. This compound also displayed a CC50 in the data set “in vitro” (CC50) of 71.1 µg/mL (≈ 172 µM).
For `CC(=O)Oc1cc(C)cc(C2(OC(C)=O)C(=O)c3ccccc3C2=O)c1OC(C)=O` [Example 18, Acetic acid 2-(2,3-diacetoxy-5-methyl-phenyl)-1,3-dioxo-indan-2-yl ester] the same measures were 192 to 194 °C and greater than 100 µg/mL.
Compound `CCC(C)c1ccc(OC(C)=O)c(C2(OC(C)=O)C(=O)c3ccccc3C2=O)c1` (stereo not shown) [Example 13, 2-(2-Acetoxy-1,3-dioxo-2,3-dihydro-1H-inden-2-yl)-4-sec-butylphenyl acetate] came in with a melting point of 118 to 120 °C. For the same compound, the CC50 in the data set “in vitro” (CC50) is 7.93 µg/mL.
The compound `CC(C)c1ccc(C2(O)C(=O)c3ccccc3C2=O)c(OCc2ccccc2)c1` [Example 24, 2-(2-Benzyloxy-4-isopropyl-phenyl)-2-hydroxy-indan-1,3-dione] displayed a melting point of 197 to 199 °C. In “in vitro” (CC50), this compound yielded a CC50 greater than 100 µg/mL.
As to `CC(C)C(=O)NC1(c2ccc(C(C)C)cc2OC(=O)C(C)C)C(=O)c2ccccc2C1=O` [Example 50, 2-(2-Isobutylamido-1,3-dioxo-2,3-dihydro-1H-inden-2-yl)-5-isopropylphenyl isobutyrate], in the data set with Coxsackie-virus B1 (setting [1]), the EC50 came to 0.0112 µg/mL (≈ 0.0257 µM). This compound yielded a CC50 in the data set “in vitro” (CC50) of 44.3 µg/mL (≈ 102 µM).
With `COc1cc(C(C)C)ccc1C1(N)C(=O)c2ccccc2C1=O` [Example 53, 2-Amino-2-(4-isopropyl-2-methoxyphenyl)-2H-inden-1,3-dione], the melting point fell in the range of 164 to 166 °C. This compound also came in with a CC50 in the data set “in vitro” (CC50) of 10.2 µg/mL (≈ 33 µM).
Take `CC(C)c1ccc(C2(OC(=O)C(C)(C)C)C(=O)c3ccccc3C2=O)c(OC(=O)C(C)(C)C)c1` [Example 29, 2-(1,3-Dioxo-2-(pivaloyloxy)-2,3-dihydro-1H-inden-2-yl)-5-isopropylphenyl pivalate]: the melting point lay in the range of 121 to 124 °C. The same compound had a CC50 in the data set “in vitro” (CC50) greater than 100 µg/mL.
`COc1cc(C(C)C)ccc1C1(Cl)C(=O)c2cccc([N+](=O)[O-])c2C1=O` (stereo not shown) [Example 39, 2-Chloro-2-(4-isopropyl-2-methoxyphenyl)-4-nitro-2H-inden-1,3-dione]: the melting point lay within 81 to 84 °C. The compound further showed a CC50 in the data set “in vitro” (CC50) of 6.67 µg/mL (≈ 17.8 µM).
With `COc1ccc(OC(C)=O)c(C2(OC(C)=O)C(=O)c3ccccc3C2=O)c1` [Example 7, 2-(2-Acetoxy-1,3-dioxo-2,3-dihydro-1H-inden-2-yl)-4-methoxyphenyl acetate], the melting point fell in the range of 184 to 186 °C. Also, in “in vitro” (CC50), the CC50 was greater than 100 µg/mL.
Regarding `CC(C)c1ccc(C2(O)Cc3ccccc3C2=O)c(O)c1` (stereo not shown) [Example 51, 2-Hydroxy-2-(2-hydroxy-4-isopropylphenyl)-2,3-dihydro-1H-inden-1-one], the melting point fell in the range of 144 to 146 °C. In the data set “in vitro” (CC50), this compound gave a CC50 of 9.34 µg/mL (≈ 33.1 µM).
Take `Cc1cc(C2(O)C(=O)c3ccccc3C2=O)cc(C)c1O` [Example 26, 2-Hydroxy-2-(4-hydroxy-3,5-dimethyl-phenyl)-indan-1,3-dione]: the melting point lay in the range of 210 to 213 °C. In the data set “in vitro” (CC50), this compound returned a CC50 greater than 100 µg/mL.
`COc1cc(C(C)C)ccc1C1(NC(=O)C2CC2)C(=O)c2ccccc2C1=O` [Example 56, N-(2-(4-Isopropyl-2-methoxyphenyl)-1,3-dioxo-2,3-dihydro-1H-inden-2-yl) cyclopropancarboxamide] yielded a melting point of 145 to 147 °C. The compound further had a CC50 in “in vitro” (CC50) of 87.8 µg/mL (≈ 233 µM).
The like results for `CCN(CC)C(=O)Oc1cc(C(C)C)ccc1C1(OC(=O)N(CC)CC)C(=O)c2ccccc2C1=O` [Example 33, Diethyl-carbamic acid 2-(2-diethylcarbamoyloxy-1,3-dioxo-indan-2-yl)-5-isopropyl-phenyl ester] were, in that order, 103 to 105 °C and greater than 100 µg/mL.
Compound `Cc1cc(C2(O)C(=O)c3ccccc3C2=O)c(C)cc1O` [Example 35, 2-Hydroxy-2-(4-hydroxy-2,5-dimethylphenyl)-1H-inden-1,3(2H)-dione] gave a melting point of 228 to 230 °C. For the same compound, the CC50 in “in vitro” (CC50) came to 59.8 µg/mL (≈ 212 µM).
For the compound `CCNC(=O)NC1(c2ccc(C(C)C)cc2OC)C(=O)c2ccccc2C1=O` [Example 60, 1-Ethyl-3-(2,3-dihydro-2-(4-isopropyl-2-methoxyphenyl)-1,3-dioxo-1H-inden-2-yl)urea], the melting point lay in the range of 267 to 269 °C. The CC50 in the data set “in vitro” (CC50) stood at 68.9 µg/mL (≈ 181 µM).
As to `CC(=O)Oc1cc(C(C)C)ccc1C1(OC(C)=O)C(=O)c2cccc([N+](=O)[O-])c2C1=O` (stereo not shown) [Example 37, Acetic acid 2-(2-acetoxy-4-isopropyl-phenyl)-4-nitro-1,3-dioxo-indan-2-yl ester], the melting point was 94 to 98 °C. The CC50 in “in vitro” (CC50) stood at 62.7 µg/mL (≈ 147 µM).
`CCCc1ccc(OC(C)=O)c(C2(OC(C)=O)C(=O)c3ccccc3C2=O)c1` [Example 11, 2-(2-Acetoxy-1,3-dioxo-2,3-dihydro-1H-inden-2-yl)-4-propylphenyl acetate] returned a melting point of 108 to 111 °C. Further, in the data set “in vitro” (CC50), the CC50 stood at 8.42 µg/mL.
With `CCc1ccc(OC(C)=O)c(C2(OC(C)=O)C(=O)c3ccccc3C2=O)c1` [Example 12, 2-(2-Acetoxy-1,3-dioxo-2,3-dihydro-1H-inden-2-yl)-4-ethylphenyl acetate], the melting point is 153 to 154 °C. For the same compound, the CC50 in “in vitro” (CC50) is 74.1 µg/mL.
`CCOC(=O)Cc1cc(OC)c(OC(C)=O)c(C2(OC(C)=O)C(=O)c3ccccc3C2=O)c1` [Example 1, Ethyl 2-(4-acetoxy-3-(2-acetoxy-1,3-dioxo-2,3-dihydro-1H-inden-2-yl)-5-methoxyphenyl)acetate] displayed a melting point of 102 to 107 °C. Further, the CC50 in the data set “in vitro” (CC50) is greater than 100 µg/mL.
On to `CC(=O)Oc1cc(C)c(C)c(C)c1C1(OC(C)=O)C(=O)c2ccccc2C1=O` [Example 16, 2-(2-Acetoxy-1,3-dioxo-2,3-dihydro-1H-inden-2-yl)-3,4,5-trimethylphenyl acetate], for which the melting point lay within 238 to 242 °C. The compound further came in with a CC50 in the data set “in vitro” (CC50) of 8.87 µg/mL.
On to `CCC(=O)Nc1cc(C)c(C)cc1C1(O)C(=O)c2ccccc2C1=O` [Example 87, N-(2-(2-Hydroxy-1,3-dioxo-2,3-dihydro-1H-inden-2-yl)-4,5-dimethylphenyl)propionamide], for which the EC50 in the data set on Coxsackie-virus B1 (setting [2]) turned out to be 0.019 µg/mL (≈ 0.0563 µM). Further, the CC50 in “in vitro” (Picorna-virus CC50) stood at 8.31 µg/mL (≈ 24.6 µM).
As for `CC(=O)Oc1ccc([N+](=O)[O-])cc1C1(OC(C)=O)C(=O)c2ccccc2C1=O` [Example 9, 2-(2-Acetoxy-1,3-dioxo-2,3-dihydro-1H-inden-2-yl)-4-nitrophenyl acetate], the melting point lay in the range of 163 to 167 °C. For the same compound, in “in vitro” (CC50), the CC50 was greater than 100 µg/mL.
